Here are results for one substance from PMC12029774 (Molecules, 2025).

Ends that are not written are not given here.

By IC50 is commonly meant the point on the concentration scale where inhibition reaches its midpoint. A high value points to lower potency.

In assay [1] the test system is rVSV-GFP-∆G-Spike, SARS-CoV-2 Delta spike. The settings on record: 1 h.
Assay [2] relates to rVSV-GFP-∆G-Spike, SARS-CoV-2 Omicron B.A1 spike. The note with it: 1 h.

Consider EWHGAHIKVTQLF-NH2 [PEP10], for which the IC50 in assay [1] came out at 47 µM; in assay [2], 140 µM.
